Values of other authors in patent US8555875B2, “Inhalation devices and related methods for administration of sedative hypnotic compounds” (Map Pharmaceuticals, Inc., priority 2008, dated 2013).

Key:
[1] = in vivo
[2] = in vivo; remark: listed apart in the source
[3] = system: melatonin receptor MT1/MT2; settings: metabolite MII versus ramelteon

SMILES | Half Life [1] [h] | Duration of Action [2] [h] | mean functional activity, times lower potency than ramelteon [3] [times]
CCN(CC)CCN1C(=O)CN=C(c2ccccc2F)c2cc(Cl)ccc21 [Flurazepam] | 50 to 100 | 24 to 28 | 
CN1C(=O)C(O)N=C(c2ccccc2)c2cc(Cl)ccc21 (centres unmarked) [Temazepam] |  | 12 to 18 | 
O=C1CN=C(c2ccccc2)c2cc([N+](=O)[O-])ccc2N1 [Nitrazepam] | 28 | 24 | 
CN1C(=O)C(O)N=C(c2ccccc2Cl)c2cc(Cl)ccc21 (centres unmarked) [Lormetazepam] | 10 | 12 to 18 | 
Cc1nnc2n1-c1ccc(Cl)cc1C(c1ccccc1Cl)=NC2 [Triazolam] | 2 to 4 | <6 | 
Cc1nnc2n1-c1ccc(Cl)cc1C(c1ccccc1)=NC2 [Alprazolam] | 9 to 14 | <6 | 
O=C1Nc2ccc(Cl)cc2C(c2ccccc2Cl)=NC1O (centres unmarked) [Lorazepam] | 9 to 19 | 12 to 18 | 
CN1CCN(C(=O)OC2c3nccnc3C(=O)N2c2ccc(Cl)cn2)CC1 (single isomer, unassigned) [Eszopiclone, 6-(5-chloro-2-pyridyl)-5[(4-methyl-1-piperazinyl)carbonyloxy]-7-oxo-6,7-di hydro-5H-pyrrolo[3,4-b]pyrazine] | 6 | 8 | 
Cc1ncc2n1-c1ccc(Cl)cc1C(c1ccccc1F)=NC2 [Midazolam] | 1.3 to 2.5 | 4 | 
CN1C(=O)CN=C(c2ccccc2)c2cc(Cl)ccc21 [Diazepam] |  | 24 to 28 | 
Cc1ccc(-c2nc3ccc(C)cn3c2CC(=O)N(C)C)cc1 [Zolpidem] |  | <4 | 
CC(O)C(=O)NCCC1CCc2ccc3c(c21)CCO3 (centres unmarked) [MII] |  |  | 21
O=C1CN=C(c2ccccc2Cl)c2cc([N+](=O)[O-])ccc2N1 [Clonazepam] | 18 to 28 | 24 to 28 | 
CNC1=Nc2ccc(Cl)cc2C(c2ccccc2)=[N+]([O-])C1 [Chlordiazepoxide] | 7 to 13 |  | 
